In assay [1] the test system is vascular cutaneous permeability induced by snake venom PLA2 (Naja mocambique mocambique PLA2). In words: reduction of vascular cutaneous permeability induced by snake venom PLA2. In kind it is in vivo, guinea pig (male Hartley). The conditions noted are these: for % Inhibition: standard drug.
In the next assay the test system is carrageenan paw edema. Briefly: rat carrageenan paw edema. In kind it is in vivo, rat (male Sprague-Dawley). The following applies: po, 3 h, read-out: Oral ED50 (95% C.L.). Here is the method:
The compounds in the scope of the invention are further tested in the rat carrageenan paw edema to determine their ability to inhibit the acute inflammatory response.
This assay is carried out as follows:
[…] male Sprague-Dawley rats, in groups of 6 animals are injected subcutaneously in the right paw with 0.1 ml of 1% carrageenan at zero time. Mercury plethysmographic readings (ml) of the paw made at zero time and 3 hours later. Test compounds are suspended or dissolved in 0.5% methylcellulose and given perorally 1 hour prior to carrageenan administration.
The increase in paw volume (edema in ml.) produced by the carrageenan is measured. Paw edema is calculated (3 hour volume minus zero time volume), and percent inhibition of edema is determined. Unpaired Student's t-test is used to determine statistical significance.
For orientation: The carrageenan paw model is a standard test of acute inflammation.

Assay [2] relates to synthesis of the arachidonic acid cyclooxygenase oxidation product TxB2. Briefly: inhibition of TxB2 synthesis (cyclooxygenase) by rat PMN. Type of assay: cell-based, rat (female Wistar). The conditions noted are these: A23187 stimulated rat PMN. Here is the method: Rat polymorphonuclear leukocytes (PMNs) are obtained from female Wistar rats (150-200 g) which receive an injection of 6% glycogen (10 ml i.p.). Rats are sacrificed 18-24 hours post injection by CO2 asphyxiation and the elicited cells are harvested by peritoneal lavage using physiological saline (0.9% NaCl). The exudate is centrifuged at 400×g for 10 minutes. The supernatant fluid is discarded and the cell pellet is resuspended to concentration of 2.0×10^7 cells/ml in HBSS containing Ca^++ and Mg^++ and 10 μM L-cysteine.
To 1 ml aliquots of cell suspension, test drugs or vehicle are added, then preincubated at 37° C. for 10 minutes. A23187 (1 μM) and [^3 H]-AA (3.0 μCi/ml) are then added and the samples are further incubated for 10 minutes. The reaction is terminated by centrifugation and pelleting cells. Supernatants are then analyzed by HPLC analysis on a 15 cm ×4.6 mm ID Supelcosil LC-18 (Supelco)(3M) column, using a two solvent system at a flow rate of 1.4 ml total flow as follows:
Injections: 150 μl of each supernatant is injected directly onto column and ^3 H arachidonic acid metabolites are monitored using an on-line radioactivity detector (Ramona, IN/US, Fairfield, N.J.).
Co-chromatography with standard [^3 H] leukotriene B4 (LTB4) in medium of stimulated PMN exposed to drug is compared to that found in medium of stimulated cells exposed to no drug, generating percent inhibition.
Results are expressed as percent inhibition at a given compound dose.
In this assay, the procedure of Example 13 is carried out as described. However, in order to determine cyclooxygenase activity, the samples are co-chromatographed with authentic reference [^3 H]--TxB2.
The results are calculated as in Example 13 and present below: […]

Assay [3] has as its system oxazolone-induced contact hypersensitivity in the mouse ear. In words: oxazolone-induced contact hypersensitivity in the mouse ear. Type of assay: in vivo, mouse (female Swiss Webster). The conditions noted are these: dosed at 1 mg/ear. Here is the method: The assay of this Example measures the ability of the compound in the scope of the invention to inhibit oxazolone-induced contact hypersensitiveity in the mouse ear.
The assay is carried out as follows:
Female, Swiss Webster mice (8 weeks old) are placed into groups of 6 and the abdominal area of each is shaved. The mice are sensitized to oxazolone (4-ethoxymethylene-2-phenyl-oxazol-5-one) by applying 100 μl of a 2% solution in 95% alcohol directly onto the shaved abdomen using an automatic pipette and rubbing the residual oxaxolone into the skin with a round wooden stick. Six days after sensitization each mouse is challenged by applying 20 μl if a 2% oxazolone solution in 95% alcohol to the right ear (10 μl of alcohol alone to the left ear. Compounds for topical applications are prepared in acetone and administered to the right ear 30 min after challenge or 30 min prior to and 5 h after challenge; acetone (vehicle) is applied to the left ear. Compounds for oral administration are suspended in 0.5 ml of 0.5% methyl cellulose and given ten min prior to challenge. Ear thickness of both ears is measured in mm×10^- 2 at 24 and 48 h after challenge using an Oditest caliper. Edema is calculated by subtracting the left ear thickness from the right ear thickness. Drug effects are determined by calculating the percentage change from control for each time period.

As a reminder, the ED50 is the dose that gives a 50% effect, or the effect in half of the subjects. In general, % Inhibition refers to how much of the control response was suppressed. Low readings indicate a response near the control, high ones a response far below the control. For orientation: inhibition means the percentage by which the read-out fell short of the control.

The structures appear in SMILES notation.

As for `COC(=O)C1(C(F)=CCCCOc2ccc(Cl)cc2)CO1` (stereo not drawn) [6 (fluoro-vinyl compound), 2-[5-(4-Chlorophenoxy)-1-fluoro-1-pentenyl]-2-oxiranecarboxylic acid methyl ester], the “% Inhibition, iv at 100 mg/kg” value in assay [1] was 32%. On to `CC(=O)Oc1ccccc1C(=O)O` [Aspirin], for which the ED50 with carrageenan paw edema came out at 145 mg/kg.

As for `NC1=NN(c2cccc(C(F)(F)F)c2)CC1` [BW 755c], the “% Inhibition” value in assay [1] (200 mg/kg p.o.) is on record as 65.3%.

With `CN(C)CCC(c1ccc(Cl)cc1)c1ccccn1` (stereo not drawn) [Chlorpheniramine], in assay [1] (2 mg/kg p.o.), the “% Inhibition” value amounted to 45.0%.

Take `C[C@@H]1C[C@H]2[C@@H]3CCC4=CC(=O)C=C[C@]4(C)[C@@]3(F)[C@@H](O)C[C@]2(C)[C@@]1(O)C(=O)CO` [Dexamethasone]: the “% Inhibition” value in assay [1] (10 mg/kg p.o.) was determined as 49.0%. The compound `COC(=O)C1(C(=O)CCCCOc2ccc(Cl)cc2)CO1` (stereo not drawn) [Example 6A, 2-[5-(4-Chlorophenoxy)-1-oxopentyl]-2-oxiranecarboxylic acid methyl ester] had an inhibition at 10 µM in assay [2] of 30%. In the case of `COC(=O)C1(C(=O)CCCCc2ccccc2)CO1` (stereo not drawn) [Example 9, 2-(5-Phenyl-1-oxopentyl)-2-oxiranecarboxylic acid methyl ester], the “% Inhibition” value in assay [3] was 22.0%. For the same compound, the inhibition at 10 µM in assay [2] was 1%. `CCOC(=O)C1(CCCCCc2ccc(Cl)cc2)CO1` (stereo not drawn) [Example 10, 2-[5-(4-Chlorophenyl)pentyl]-2-oxiranecarboxylic acid ethyl ester]: the inhibition at 10 µM in assay [2] was determined as 4%. The “% Inhibition, iv at 100 mg/kg” value in assay [1] was determined as 24.1%.

For the compound `COc1ccc2c(c1)c(CC(=O)O)c(C)n2C(=O)c1ccc(Cl)cc1` [Indomethacin], the “% Inhibition” value in assay [1] (50 mg/kg p.o.) turned out to be 15.0%. In addition, in the assay with carrageenan paw edema, the median effective dose (ED50) turned out to be 3.7 mg/kg.

These data come from patent US4933365A, “Phospholipase A2 inhibitors” (American Home Products Corporation, priority 1989, dated 1990).
